Assay results taken from patent US6417182B1, “Pharmaceutical compositions comprising metal complexes” (AnorMED Inc., priority 1993, dated 2002).

Experiments:
[1] = test system: murine (RAW264) macrophage cell lines; assay: in vitro cell culture test: available nitric oxide (nitrite+nitrate, Griess) in activated macrophages; assay type: cell-based; settings: up to 100 μM
Method: In the in vitro cell culture tests, murine (RAW264) macrophage cell lines, which can be induced to produce nitric oxide, were seeded, 10^6 cells/well, onto 24 well culture plates of 2 ml volume per well, in Eagles modified minimal essential medium (MEM) plus 10% foetal bovine serum without phenol red.
The cells were activated to produce nitric oxide, with 10 μg/ml lipopolysaccharide and 100 units/ml interferon γ for 18 hours. Concurrently, test compounds made up in MEM were added at non-cytotoxic concentrations. […]
Background nitric oxide was assessed by measurement of nitrate and nitrite in cells which were not activated. […]
Nitric oxide was determined by measurement of nitrate and nitrite in the cell supernatant These anions are the stable end-products of reactions of NO in solution. […] Nitrite was determined using the Griess reaction in which nitrite reacts with 1% sulphanilamide in 5% H3PO4/0.1% naphthylethylenediamine dihydrochloride to form a chromophore absorbing at 540 nm Nitrate was determined by reducing nitrate to nitrite with a bacterial nitrate reductase from Pseudomonas oleovorans and then measuring nitrite with the Griess reaction. […] The effect of test compounds on available nitric oxide (measured as nitrite+nitrate) was determined. […]

[2] = in vitro NO uptake test (manometric pressure decrease; IR spectrum of freeze-dried product); settings: aqueous solution under argon, 20-24° C., NO gas in headspace, pressure recorded over one hour
Method: The resulting solution was placed in a three-necked pear-shaped flask and stirred by a magnetic stirrer at constant speed of 1000 rpm, at a constant temperature in the range 20° C.-24° C. A manometer was attached to the flask, and purified, dried nitric oxide gas (known volume in the range 3-5 cm^3) was introduced via a septum, using a gas syringe, at atmospheric pressure into the headspace above the reaction solution. The pressure within the flask was recorded periodically over a period of one hour.
A control experiment was carried out according to the above but without any complex present.
On completion of each in vitro test, the reaction solution was freeze-dried. An infrared spectrum of the freeze-dried product provided information on metal-NO bond formation.

[3] = test system: rat tail artery; assay: ex vivo rat tail artery perfusion test (vasoconstriction by removal of endogenous NO); design: species or system Wistar rats; settings: for vasoconstriction on application of test compound (in words): 10 μM and 100 μM (Example 26 also 1000 μM); for reversibility of vasoconstriction: washout with Krebs solution
Description: In the ex vivo tests, segments of rat tail artery (0.8-1.5 cm) were dissected free from normotensive adult Wistar rats. The arteries were internally perfused with Krebs solution (mM: NaCl 118, KCl 4.7, NaHCO3, 25, NaH2PO4 1.15, CaCl2 2.5, MgCl2 1.1, glucose 5.6 and gassed with 95% O2/5% CO2 to maintain a pH of 7.4) in a constant flow perfusion apparatus. A differential pressure transducer located upstream of the vessel detected changes in back pressure. The rat tail artery preparation was pre-contracted with 6.5 μM phenylephrine to give a physiologically normal pressure of 100-120 mm Hg. The pre-contracted vessels were then perfused with the test compound. The arteries were perfused with Krebs solution between applications of test compound to wash out the test compound.
Pressure changes in the system served to indicate artery vasoconstriction. The vasoconstriction is a direct result of the removal of endogenous nitric oxide (edrf) from the endothelial cells of the rat tail artery.

Row | Compound | dose dependence of reduction of available nitric oxide [1] | pressure decrease indicating binding of NO to the metal compound [2] | vasoconstriction on application of test compound (in words) [3] | % Vasoconstriction ([3]; 10 μM, artery pre-contracted with 6.5 μM phenylephrine) [%] | reversibility of vasoconstriction [3]
1 | O.O.O=C([O-])CN(CCN(CC(=O)[O-])CC(=O)O)CC(=O)[O-].[Cl-].[K+].[Ru+3] [Example 1, K[Ru(Hedta)Cl]2H2O] | reduced in a dose-dependent fashion | – | – | – | –
2 | O.O=C([O-])CN(CC(=O)[O-])CC(=O)O.O=C([O-])CN(CC(=O)[O-])CC(=O)O.O=C([O-])CN(CC(=O)[O-])CC(=O)O.O=C([O-])CN(CC(=O)[O-])CC(=O)O.[K+].[K+].[Ru+3].[Ru+3] [Example 7, K[Ru(Hnta)2]½H2O] | – | pressure decrease indicated binding of NO | – | – | –
3 | O.O=C([O-])CN(CCN(CC(=O)[O-])CC(=O)O)CCN(CC(=O)[O-])CC(=O)O.[Cl-].[K+].[Ru+3] [Example 8, K[Ru(H2dtpa)Cl]H2O] | – | pressure decrease indicated binding of NO | – | – | –
4 | [Ru(NH3)5Cl]Cl2 [Example 15] | – | – | dose-dependent vasoconstriction | 16 | reversible by washout with Krebs solution
5 | Cc1occc(=O)c1[O-].Cc1occc(=O)c1[O-].Cc1occc(=O)c1[O-].[Ru+3] [Example 26, [Ru(maltol)3]] | – | – | dose-dependent vasoconstriction | – | reversible by washout with Krebs solution
6 | CC(=O)C=C(C)[O-].O=C([O-])CN(CCN(CC(=O)[O-])CC(=O)O)CC(=O)O.[Ru+3] [Example 2, [Ru(H2edta)(acac)]] | – | – | dose-dependent vasoconstriction | – | reversible by washout with Krebs solution
7 | CC(=O)[O-].CC(=O)[O-].CC(=O)[O-].CC(=O)[O-].[Cl-].[Ru+3].[Ru+3] [Example 14, [Ru2(OAc)4]Cl] | – | – | dose-dependent vasoconstriction | – | reversible by washout with Krebs solution
8 | O.O=C([O-])CN(CCO)CCN(CC(=O)[O-])CC(=O)[O-].[Cl-].[K+].[Ru+3] [Example 3, K[Ru(hedtra)Cl]H2O] | – | – | dose-dependent vasoconstriction | – | reversible by washout with Krebs solution
